ChEMBL document CHEMBL1201862, “PubChem BioAssay data set” (2004)
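Grown in 96-well plates, cells were treated for 48 hours with each compound at five concentrations. Insufficient inhibition: endpoint recorded as highest concentration tested. GI50: concentration for 50% inhibition of growth.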 Activity calls are given as the source filed them. Cut-off read from the data, not from the text of the source: active = GI50 up to about 1.1 µM and inactive = higher.

Key:
Assay in all cases: growth of human tumour cells (NCI), 48 h
[1] = tested on: A549
[2] = tested on: SF-539
[3] = tested on: U-251
[4] = tested on: M14
[5] = tested on: SK-MEL-28
[6] = tested on: NCI-H226
[7] = tested on: EKVX
[8] = tested on: CCRF-CEM
[9] = tested on: SNB-19
[10] = tested on: SR
[11] = tested on: KM12
[12] = tested on: SK-OV-3
[13] = tested on: SK-MEL-2
[14] = tested on: MDA-MB-435
[15] = tested on: HOP-62
[16] = tested on: IGROV-1
[17] = tested on: T47D
[18] = tested on: NCI/ADR-RES
[19] = tested on: CAKI-1
[20] = tested on: HOP-92

| Structure (SMILES) | GI50 [1] | GI50 [2] | GI50 [3] | GI50 [4] | GI50 [5] | GI50 [6] | GI50 [7] | GI50 [8] | GI50 [9] | GI50 [10] | GI50 [11] | GI50 [12] | GI50 [13] | GI50 [14] | GI50 [15] | GI50 [16] | GI50 [17] | GI50 [18] | GI50 [19] | GI50 [20] |
| --- | --- | --- | --- | --- | --- | --- | --- | --- | --- | --- | --- | --- | --- | --- | --- | --- | --- | --- | --- | --- |
| COC(=O)Cn1cnc2c(Cl)nc(Nc3ccccc3)nc21 | 79.6 µM (inactive) | > 100 µM (inactive) | 66.7 µM (inactive) | 29 µM (inactive) | 27.4 µM (inactive) | > 100 µM (inactive) | 27 µM (inactive) | 27.2 µM (inactive) | 67.9 µM (inactive) | 40.1 µM (inactive) | > 100 µM (inactive) | > 100 µM (inactive) | 16.4 µM (inactive) | 26.7 µM (inactive) | > 100 µM (inactive) | 20.8 µM (inactive) | > 100 µM (inactive) | 73.3 µM (inactive) | – | – |
| CN(C)CCNC(=O)Cn1cnc2cccc([N+](=O)[O-])c2c1=O | > 100 µM (inactive) | > 100 µM (inactive) | > 100 µM (inactive) | > 100 µM (inactive) | > 100 µM (inactive) | > 100 µM (inactive) | > 100 µM (inactive) | > 100 µM (inactive) | > 100 µM (inactive) | > 100 µM (inactive) | > 100 µM (inactive) | > 100 µM (inactive) | > 100 µM (inactive) | > 100 µM (inactive) | > 100 µM (inactive) | > 100 µM (inactive) | > 100 µM (inactive) | > 100 µM (inactive) | > 100 µM (inactive) | – |
| Cc1ccc(S(=O)(=O)N2CCN(S(=O)(=O)c3ccc(C)cc3)Cc3ccccc3C2)cc1 | 80.5 µM (inactive) | > 100 µM (inactive) | – | 33 µM (inactive) | > 100 µM (inactive) | 60.3 µM (inactive) | > 100 µM (inactive) | > 100 µM (inactive) | 21.6 µM (inactive) | > 100 µM (inactive) | > 100 µM (inactive) | – | > 100 µM (inactive) | 34.3 µM (inactive) | 20.5 µM (inactive) | > 100 µM (inactive) | 28.2 µM (inactive) | > 100 µM (inactive) | 39.4 µM (inactive) | – |
| CC1=CC(=O)c2ccc3c4ccccc4n(C)c3c2C1=O | 48.2 µM (inactive) | > 100 µM (inactive) | 49 µM (inactive) | 17.8 µM (inactive) | 60.7 µM (inactive) | > 94.4 µM (inactive) | > 19.8 µM (inactive) | 20.8 µM (inactive) | 39.1 µM (inactive) | – | 34.4 µM (inactive) | > 100 µM (inactive) | 16.2 µM (inactive) | 17.1 µM (inactive) | 24.9 µM (inactive) | 16.9 µM (inactive) | 33.8 µM (inactive) | > 100 µM (inactive) | 36.2 µM (inactive) | > 46.5 µM (inactive) |
| CC1CCC/C1=C(/I)C(=O)c1ccccc1 (centres undefined) | 98.2 µM (inactive) | > 100 µM (inactive) | > 100 µM (inactive) | 59.3 µM (inactive) | > 100 µM (inactive) | 60.7 µM (inactive) | > 100 µM (inactive) | 30.4 µM (inactive) | > 100 µM (inactive) | 30.8 µM (inactive) | 25.4 µM (inactive) | > 100 µM (inactive) | > 100 µM (inactive) | 28.9 µM (inactive) | > 100 µM (inactive) | > 100 µM (inactive) | > 100 µM (inactive) | 76.7 µM (inactive) | 2.97 µM (inactive) | – |
| O[C@H]1[C@H](O)[C@@H](O)[C@@]2(O)CC[C@@H]1N2 | > 100 µM (inactive) | > 100 µM (inactive) | > 100 µM (inactive) | > 100 µM (inactive) | > 100 µM (inactive) | > 100 µM (inactive) | > 100 µM (inactive) | > 100 µM (inactive) | > 100 µM (inactive) | – | > 100 µM (inactive) | > 100 µM (inactive) | > 100 µM (inactive) | > 100 µM (inactive) | > 100 µM (inactive) | > 100 µM (inactive) | > 100 µM (inactive) | > 100 µM (inactive) | > 100 µM (inactive) | > 100 µM (inactive) |
| C1=CC2(C=CC13O[C@H](C1CCCCC1)[C@@H](C1CCCCC1)O3)O[C@H](C1CCCCC1)[C@@H](C1CCCCC1)O2 | > 50 µM (inactive) | > 50 µM (inactive) | > 50 µM (inactive) | > 50 µM (inactive) | > 50 µM (inactive) | > 50 µM (inactive) | – | – | > 50 µM (inactive) | > 50 µM (inactive) | > 50 µM (inactive) | > 50 µM (inactive) | > 50 µM (inactive) | > 50 µM (inactive) | > 50 µM (inactive) | > 50 µM (inactive) | > 50 µM (inactive) | > 50 µM (inactive) | > 50 µM (inactive) | – |
| Cc1cc2occ(S(=O)(=O)NC(=O)Nc3ccc(Cl)cc3)c(=O)c2c(=O)o1 | > 100 µM (inactive) | > 100 µM (inactive) | > 100 µM (inactive) | > 100 µM (inactive) | > 100 µM (inactive) | > 100 µM (inactive) | > 100 µM (inactive) | > 100 µM (inactive) | > 100 µM (inactive) | – | > 100 µM (inactive) | > 100 µM (inactive) | > 100 µM (inactive) | > 100 µM (inactive) | > 100 µM (inactive) | > 100 µM (inactive) | > 100 µM (inactive) | > 100 µM (inactive) | > 100 µM (inactive) | > 100 µM (inactive) |
| Cc1nc2cc(F)c(F)cc2[nH]c1=O | > 100 µM (inactive) | > 100 µM (inactive) | > 100 µM (inactive) | > 100 µM (inactive) | > 100 µM (inactive) | > 100 µM (inactive) | 67.1 µM (inactive) | > 100 µM (inactive) | > 100 µM (inactive) | – | > 100 µM (inactive) | > 100 µM (inactive) | > 100 µM (inactive) | > 100 µM (inactive) | > 100 µM (inactive) | – | > 100 µM (inactive) | > 100 µM (inactive) | > 100 µM (inactive) | > 100 µM (inactive) |
| O=C1CCCc2c1c1c(n2Cc2ccccc2)-c2ccccc2C1=O | 23 µM (inactive) | 21.1 µM (inactive) | 20.7 µM (inactive) | 21.3 µM (inactive) | 33.3 µM (inactive) | 21.6 µM (inactive) | 27.7 µM (inactive) | 31 µM (inactive) | 15.4 µM (inactive) | – | 17.9 µM (inactive) | 18.8 µM (inactive) | 18.9 µM (inactive) | 18.4 µM (inactive) | 25.5 µM (inactive) | 18.9 µM (inactive) | 5.93 µM (inactive) | 21.1 µM (inactive) | 21.1 µM (inactive) | 26.9 µM (inactive) |
| Cn1c2ccccc2n2c3ncccc3/c(=N/CCCC(=O)O)c(C#N)c12 | > 100 µM (inactive) | – | > 100 µM (inactive) | > 100 µM (inactive) | > 100 µM (inactive) | > 100 µM (inactive) | > 100 µM (inactive) | > 100 µM (inactive) | > 100 µM (inactive) | > 100 µM (inactive) | > 100 µM (inactive) | > 100 µM (inactive) | > 100 µM (inactive) | > 100 µM (inactive) | > 100 µM (inactive) | > 100 µM (inactive) | > 100 µM (inactive) | > 100 µM (inactive) | > 100 µM (inactive) | – |
| O=C(CCCn1ccnc1[N+](=O)[O-])NCCn1ccnc1 | > 100 µM (inactive) | > 100 µM (inactive) | > 100 µM (inactive) | > 100 µM (inactive) | > 100 µM (inactive) | > 100 µM (inactive) | – | > 100 µM (inactive) | > 100 µM (inactive) | > 100 µM (inactive) | > 100 µM (inactive) | > 100 µM (inactive) | > 100 µM (inactive) | > 100 µM (inactive) | > 100 µM (inactive) | > 100 µM (inactive) | > 100 µM (inactive) | > 100 µM (inactive) | > 100 µM (inactive) | – |
| CN1C(=O)C(O)CC1c1cccc(C(F)(F)F)c1 (centres undefined) | > 100 µM (inactive) | > 100 µM (inactive) | > 100 µM (inactive) | > 100 µM (inactive) | > 100 µM (inactive) | > 100 µM (inactive) | > 100 µM (inactive) | > 100 µM (inactive) | > 100 µM (inactive) | – | > 100 µM (inactive) | > 100 µM (inactive) | > 100 µM (inactive) | > 100 µM (inactive) | > 100 µM (inactive) | > 100 µM (inactive) | > 100 µM (inactive) | > 100 µM (inactive) | > 100 µM (inactive) | > 100 µM (inactive) |
| CCNC(=S)N/N=C/c1cc([N+](=O)[O-])ccc1O | 33.4 µM (inactive) | 35.4 µM (inactive) | 16.9 µM (inactive) | 33.7 µM (inactive) | 51.8 µM (inactive) | 27.9 µM (inactive) | 30.4 µM (inactive) | 4.47 µM (inactive) | 34.1 µM (inactive) | 10.9 µM (inactive) | 23.8 µM (inactive) | 15 µM (inactive) | > 100 µM (inactive) | 37.2 µM (inactive) | 32.7 µM (inactive) | 22.4 µM (inactive) | 19.9 µM (inactive) | 21.8 µM (inactive) | – | – |
| COc1cc2cc(C(=O)N3CC(CCl)c4c3cc(O)c3ccccc43)[nH]c2c(OC)c1OC (centres undefined) | < 0.005 µM (active) | < 0.005 µM (active) | < 0.005 µM (active) | < 0.005 µM (active) | < 0.005 µM (active) | < 0.005 µM (active) | < 0.005 µM (active) | < 0.005 µM (active) | < 0.005 µM (active) | < 0.005 µM (active) | < 0.005 µM (active) | < 0.005 µM (active) | < 0.005 µM (active) | < 0.005 µM (active) | < 0.005 µM (active) | – | < 0.005 µM (active) | < 0.005 µM (active) | – | – |
